The SangsterLogP compilation

Assay: method code SF-AS, from DOI: 10.1021/jf00106a008
Conditions: pH 7.3

| SMILES | logD |
| --- | --- |
| C#CCOn1c(=O)[nH]c(C)c(Br)c1=O | -0.1 |
| CCCCCCCCOn1c(=O)[nH]c(C)c(Br)c1=O | 3.38 |
| CCCOn1c(=O)c(Br)c(C)n(C)c1=O | 0.72 |
| CCCOn1c(=O)[nH]c(CCC)c(Br)c1=O | 1.73 |
| Cc1[nH]c(=O)n(OCC(C)C)c(=O)c1Br | 1.23 |
| CCC(C)On1c(=O)[nH]c(C)c(Br)c1=O (stereo not drawn) | 1.11 |
| CCOn1c(=O)[nH]c(C)c(Br)c1=O | 0.11 |
| CCCOn1c(=O)cc(C)[nH]c1=O | 0.3 |

Further lines, results first:

| logD | SMILES |
| --- | --- |
| 1.69 | CCCCCOn1c(=O)[nH]c(C)c(Br)c1=O |
| 0.76 | CCCOn1c(=O)[nH]c(C)c(Br)c1=O |
| 1.26 | CCCCOn1c(=O)[nH]c(C)c(Br)c1=O |
| 0.3 | Cc1[nH]c(=O)n(OCCCl)c(=O)c1Br |
| 0.45 | Cc1[nH]c(=O)n(OC(C)C)c(=O)c1Br |
| 4.65 | CCCCCCCCCCOn1c(=O)[nH]c(C)c(Br)c1=O |
| 0.32 | C=CCOn1c(=O)[nH]c(C)c(Br)c1=O |
| -0.22 | CCCOn1c(=O)[nH]c(C)c(SC#N)c1=O |
| 2.48 | CCCCCCOn1c(=O)[nH]c(C)c(Br)c1=O |
| -0.3 | COn1c(=O)[nH]c(C)c(Br)c1=O |
